From ChEMBL document CHEMBL1144809, “Synthesis and biological evaluation of histone deacetylase inhibitors that are based on FR235222: a cyclic tetrapeptide scaffold” (Bioorg Med Chem Lett, 2008)

Key:
BXPC-3 = assay: Cytotoxicity against human BxPC3 cells at 5 uM; type: functional; conditions: read-out: GI
[1] = test system: Histone deacetylase (Homo sapiens); assay: Inhibition of HDAC at 200 uM relative to control

In the case of CC[C@@H]1NC(=O)[C@H](CCCNC(=N)N)NC(=O)[C@H]2CCCCN2C(=O)[C@@H](Cc2ccccc2)NC1=O, the inhibition of growth at 5 µM (BXPC-3) is reported as 20% and the inhibition [1] is reported as 98%.

Work on CC[C@@H]1NC(=O)[C@H](CCCCNC(C)=O)NC(=O)[C@H]2CCCN2C(=O)[C@H](Cc2ccccc2)NC1=O yielded an inhibition of growth at 5 µM (BXPC-3) of 38% and an inhibition [1] of 38%.

CCC(=O)CCCCC[C@@H]1NC(=O)[C@H]2CCCCN2C(=O)[C@H]([C@@H](C)CC)NC(=O)[C@H](Cc2cn(OC)c3ccccc23)NC1=O [APICIDIN] showed an inhibition of growth at 5 µM (BXPC-3) of 98%.

Molecule CC[C@@H]1NC(=O)[C@H](CCCNC(=N)N)NC(=O)[C@H]2CCCN2C(=O)[C@@H](Cc2ccccc2)NC1=O has an inhibition of growth at 5 µM (BXPC-3) of 17% and an inhibition [1] of 97%.

With CC[C@@H]1NC(=O)[C@H](CCCCNC(C)=O)NC(=O)[C@H]2CCCN2C(=O)[C@H](Cc2ccccc2)N(C)C1=O the inhibition of growth at 5 µM (BXPC-3) was 19% and the inhibition [1] was 86%.

With CC[C@@H]1NC(=O)[C@H](CCCNC(=N)N)NC(=O)[C@H]2CCCN2C(=O)[C@H](Cc2ccccc2)NC1=O the inhibition of growth at 5 µM (BXPC-3) was 27% and the inhibition [1] was 97%.

Molecule CC[C@@H]1NC(=O)[C@H](CCCNC(=N)N)NC(=O)[C@H]2CCCN2C(=O)[C@@H]2Cc3ccccc3CN2C1=O has an inhibition of growth at 5 µM (BXPC-3) of 0% and an inhibition [1] of 83%.
